Test results published in patent US9603890B2, “Methods for increasing the selective efficacy of gene therapy using CAR peptide and heparan-sulfate mediated macropinocytosis” (Vascular Biosciences, priority 2012, dated 2017).
Where two headings read alike, the source gives them in different places. Where no end group is shown, it is not given here.

Assays:
[1] = tested on: rats with severe occlusive pulmonary hypertension induced by Sugen injection followed by hypoxia; experiment: MFN2 adenovirus gene therapy alone or co-administered with CAR peptide in severe occlusive PAH rats; type: in vivo, rat
Text: CAR peptide was able to exert its disease-selective adjuvant properties by allowing enhanced viral delivery and uptake of gene product (MFN2) in an animal model of severe occlusive PAH in rats. (A) Figure showing the effect of MFN2 GTx administered alone when compared to control and diseased animal not given MFN2 Gtx. Statistical significance was examined using ANOVA (see Supplement for further statistical information). (B) Change in mitofusion-2 mRNA levels relative to control. […] (D) mPAP (mmHg) levels in Sugen hypoxia rats.
Adenoviruses were used as viral delivery vectors to incorporate cDNA inserts of MFN2 into rats with severe occlusive pulmonary hypertension induced by Sugen injection followed by hypoxia (FIG. 1).
The MFN2 gene encodes the mitofusion-2 protein, which is a mitochondrial membrane protein that participates in mitochondrial fusion. Mitofusion-2 contributes to the maintenance and operation of the mitochondrial network, and is involved in the regulation of vascular smooth muscle cell (VSMC) proliferation. […] Successful delivery and uptake of the MFN2 gene via adenovirus delivery vector into diseased cells results in increased expression of the mitofusion-2 protein, regulation of VSMC proliferation, and a subsequent decrease in disease indicators. […]

[2] = tested on: Chinese hamster ovary cells; settings: cited from earlier work
[3] = tested on: animal models of pulmonary arterial hypertension (PAH); settings: cited from earlier work
[4] = Cell internalization and tissue penetration of truncated CAR versus CAR; type: cell-based
[5] = target: T1, Heparinase I (EC 4.2.2.7) (Pedobacter heparinus, UniProt Q05819); settings: heparan sulfate moiety as substrate; cited from earlier work
T1 sequence (Q05819 22-384): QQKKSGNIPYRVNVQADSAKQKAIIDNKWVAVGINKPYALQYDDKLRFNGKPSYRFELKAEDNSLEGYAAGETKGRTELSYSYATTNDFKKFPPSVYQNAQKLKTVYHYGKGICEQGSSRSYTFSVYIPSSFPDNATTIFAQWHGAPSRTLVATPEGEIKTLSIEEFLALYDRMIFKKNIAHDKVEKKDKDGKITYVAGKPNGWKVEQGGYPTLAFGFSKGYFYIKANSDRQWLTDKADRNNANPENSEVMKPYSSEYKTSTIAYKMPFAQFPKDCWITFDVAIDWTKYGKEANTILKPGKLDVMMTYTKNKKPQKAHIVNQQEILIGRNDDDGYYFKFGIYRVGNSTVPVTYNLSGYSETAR

[6] = target: T2, Heparanase (EC 3.2.1.166) (Homo sapiens, UniProt Q9Y251); settings: heparan sulfate moiety as substrate; cited from earlier work
T2 sequence (Q9Y251 158-543 limits assumed): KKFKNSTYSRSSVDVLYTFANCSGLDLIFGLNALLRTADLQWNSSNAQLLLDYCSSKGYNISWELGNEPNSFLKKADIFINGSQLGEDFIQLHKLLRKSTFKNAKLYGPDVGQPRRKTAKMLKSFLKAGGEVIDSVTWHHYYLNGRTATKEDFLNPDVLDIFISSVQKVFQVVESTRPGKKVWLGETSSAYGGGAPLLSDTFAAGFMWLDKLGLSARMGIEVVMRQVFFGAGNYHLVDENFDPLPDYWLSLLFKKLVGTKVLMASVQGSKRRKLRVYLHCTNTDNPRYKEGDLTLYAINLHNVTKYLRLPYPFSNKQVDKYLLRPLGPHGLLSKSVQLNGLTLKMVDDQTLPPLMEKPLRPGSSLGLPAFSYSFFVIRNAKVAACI
T2 sequence (Q9Y251 36-109 limits assumed): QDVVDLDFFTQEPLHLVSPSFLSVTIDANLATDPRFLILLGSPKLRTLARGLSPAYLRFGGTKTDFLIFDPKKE

Substance: CARSKNKDC (also: cyclic, type not given here)
- increase in gene therapy transfected gene expression [1]: 7 ×
- binding of CAR to Chinese hamster ovary cells ([2]; cells treated with heparinase I and III): greatly reduced
- binding of CAR to Chinese hamster ovary cells ([2]; cells treated with heparinase I): greatly reduced
- increase in selective vasodilation ([3]; CAR co-administered with vasodilators): approximately 2 ×
- increase in co-administered drug concentration ([3]; in vivo): 2 ×

Substance: CARSKNK [tCAR, truncated form of CAR]
- potency for cell internalization and tissue penetration versus parent peptide CAR [4]: more potent

Substance: 2-O-sulfo-α-L-iduronic acid-2-deoxy-2-acetamido-α-D-glucopyranosyl [IdoA2S-GlcNS]
- Heparinase I cleavage (EC 4.2.2.7) [5]: Yes
- Heparanase cleavage (EC 3.2.1.166) [6]: No
